These results are taken from patent publication US20040235874A1, “Fungicidal composition comprising pyrimethanil and iprodione” (priority 2001, published 2004).

Assay type in all cases: in vivo
One experiment concerns Sclerotinia sclerotinium. In words: Control of Sclerotinia on lettuce, counting of attacked plants. The note with it: lettuce Manita. The procedure: This sample illustrates the efficacy of a composition according to the invention which comprises pyrimethanil and iprodione as active ingredients for controlling Sclerotinia sclerotinium on lettuce. The following fungicidal compounds are compared: iprodione at the dose of 750 g/ha, pyrimethanil at the dose of 800 g/ha, […] A total of 5 […] carried out on lettuce plants ([…] variety). An inoculation with Sclerotinia is carried out the next day after the first treatment by spreading contaminated rape plant stems on the soil. 11 countings of the lettuce plants attacked by Schlerotinia are carried out throughout the trial.

The subject of the next experiment is Ascochyta pisi. Nature of the experiment: Control of Ascochyta pisi on protein-rich peas. The note with it: pea Baccara, 23 days after second application. The text has this: This example illustrates the efficacy of a composition according to the invention which comprises pyrimethanil and iprodione as active ingredients for controlling Ascochyta pisi on protein-rich peas. The following fungicidal compounds are compared: […] pyrimethanil at the dose of 600 g/ha, […] Two successive […] carried out on pea plants (Baccara variety) at the flowering stages and then two weeks after the first application. 23 days after the second application, the percentage of diseased leaves and pods is calculated; the results are presented in table 5.

The next experiment has as its system Alternaria dauci. Nature of the experiment: Field control of Alternaria dauci on carrot. The note with it: carrot Nantes. The text has this:
This example illustrates the efficacy of a composition according to the invention which comprises pyrimethanil and iprodione as active ingredients for controlling alternaria dauci on carrot. The following fungicidal compounds are compared: iprodione at the dose of 750 g/ha, pyrimethanil at the dose of 600 g/ha, […] The products are applied to carrot (Nantes variety) which is sensitive to Alternaria dauci. The various products to be studied are sprayed at the rate of 3 applications in total with intervals of 8 days between the 1st and 2nd applications and of 10 days between the 2nd and 3rd application. Scores for the disease (percentage of foliar surface area destroyed) are awarded 7 days after the 1st and 2nd applications and then 3 days and 8 days after the 3rd application.

The next experiment relates to Alternaria solani. In words: Field control of Alternaria solani on potato. The note with it: potato Bintje. The source says:
This example illustrates the efficacy of a composition according to the invention which comprises pyrimethanil and iprodione as active ingredients for controlling Alternaria solani on the potato. […] The following fungicidal compounds are compared: iprodione at the dose of 750 g/ha, pyrimethanil at the dose of 600 g/ha, […] The products are applied to potato (Bintje variety) which is sensitive to Alternaria solani. […] mancozeb—product tested—mancozeb—product tested—mancozeb—product tested. Scores for the disease (percentage of foliar surface area destroyed) are awarded 15 days after the second application of the experiment products (15 DAB), 8 days and 17 days after the third application of the experimental products (8 DAC and 17 DAC).

The next experiment concerns Alternaria porri. Nature of the experiment: Control of Alternaria porri on onion, yield at harvest. The note with it: for Yield (kg/ha): onion bulbs, harvest 32 days after last of 5 applications; for Yield gain (%): onion, compared with the untreated control. The procedure: This example illustrates the efficacy of a composition according to the invention which comprises pyrimethanil and iprodione as active ingredients for controlling Alternaria porri on onion.
The following fungicidal compounds are compared:
iprodione at the dose of 750 g/ha,
pyrimethanil at the dose of 600 g/ha,
iprodione+pyrimethanil at the doses of 300+150 g/ha to be applied in a mixture volume of 1 000 l/ha.
A total of 5 successive preventive sprayings are carried out on onion plants which were initially 31 days old and at a rhythm of 13 days.
32 days after the last application, harvesting is carried out and the yield is calculated in terms of kg of bulbs/ha and the yield gain expressed by comparing with the untreated control.

For `Cc1cc(C)nc(Nc2ccccc2)n1` [pyrimethanil], the “Counting of the lettuce plants attacked by Sclerotinia” value (from here on “Counting”) was found to be 3.5 in the experiment with Sclerotinia sclerotinium (800 g/ha, counting 1); 5.5 with Sclerotinia sclerotinium (800 g/ha, counting 2); 8 with Sclerotinia sclerotinium (800 g/ha, counting 3); 14.8 with Sclerotinia sclerotinium (800 g/ha, counting 4); 18 in the experiment with Sclerotinia sclerotinium (800 g/ha, counting 5); 22.8 in the experiment on Sclerotinia sclerotinium (800 g/ha, counting 6). Moreover, the “Counting” value in the experiment on Sclerotinia sclerotinium (800 g/ha, counting 7) is listed as 26; in the experiment on Sclerotinia sclerotinium (800 g/ha, counting 8), 29.4; in the experiment on Sclerotinia sclerotinium (800 g/ha, counting 9), 31.4; in the experiment on Sclerotinia sclerotinium (800 g/ha, counting 10), 33.9; with Sclerotinia sclerotinium (800 g/ha, counting 11), 35.8. Further, the “Amount of diseased leaves (%)” value was 21% with Ascochyta pisi (600 g/ha, first column) and 16% in the experiment on Ascochyta pisi (600 g/ha, second column). For the same compound, the “Score for the disease (percentage of foliar surface area destroyed)” value in the experiment on Alternaria dauci (600 g/ha, 3 DAC) is reported as 31.2%; in the experiment on Alternaria dauci (600 g/ha, 7 DAA), 11.9%; with Alternaria dauci (600 g/ha, 7 DAB), 21.9%; in the experiment with Alternaria dauci (600 g/ha, 8 DAC), 57.5%; in the experiment with Alternaria solani (600 g/ha, 8 DAC) it was 8.75%; with Alternaria solani (600 g/ha, 15 DAB), 3.44%. The “Score for the disease (percentage of foliar surface area destroyed)” value in the experiment on Alternaria solani (600 g/ha, 17 DAC) came to 13.13%. Moreover, the “Yield (kg/ha)” value with Alternaria porri (600 g/ha) is listed as 31 500 kg/ha. Besides, the “Yield gain (%)” value in the experiment on Alternaria porri (600 g/ha) came out at 11.5%.

Regarding `CC(C)NC(=O)N1CC(=O)N(c2cc(Cl)cc(Cl)c2)C1=O` [iprodione], the “Counting” value in the experiment on Sclerotinia sclerotinium (750 g/ha, counting 1) is 1; in the experiment with Sclerotinia sclerotinium (750 g/ha, counting 2), 2.5; with Sclerotinia sclerotinium (750 g/ha, counting 3), 3; with Sclerotinia sclerotinium (750 g/ha, counting 4), 4; in the experiment with Sclerotinia sclerotinium (750 g/ha, counting 5) it was 4; in the experiment with Sclerotinia sclerotinium (750 g/ha, counting 6) it was 4.8. The “Counting” value worked out at 5.5 with Sclerotinia sclerotinium (750 g/ha, counting 7); 5.9 in the experiment with Sclerotinia sclerotinium (750 g/ha, counting 8); 6.7 in the experiment with Sclerotinia sclerotinium (750 g/ha, counting 9); 7.4 in the experiment on Sclerotinia sclerotinium (750 g/ha, counting 10); 7.9 in the experiment on Sclerotinia sclerotinium (750 g/ha, counting 11). Moreover, the “Amount of diseased leaves (%)” value in the experiment with Ascochyta pisi (500 g/ha, first column) was found to be 46%; with Ascochyta pisi (500 g/ha, second column) it was 34%. Also, the “Score for the disease (percentage of foliar surface area destroyed)” value with Alternaria dauci (750 g/ha, 3 DAC) is on record as 19.4%; in the experiment with Alternaria dauci (750 g/ha, 7 DAA) it was 8.7%; in the experiment on Alternaria dauci (750 g/ha, 7 DAB) it was 11.9%; with Alternaria dauci (750 g/ha, 8 DAC), 35%; in the experiment with Alternaria solani (750 g/ha, 8 DAC), 4.38%; in the experiment on Alternaria solani (750 g/ha, 15 DAB), 1.75%. Also, the “Score for the disease (percentage of foliar surface area destroyed)” value with Alternaria solani (750 g/ha, 17 DAC) is 10%. Further, in the experiment with Alternaria porri (750 g/ha), the “Yield (kg/ha)” value is 33 000 kg/ha. In addition, the “Yield gain (%)” value in the experiment with Alternaria porri (750 g/ha) amounted to 16.8%.
